Earlier results in patent US5908934A, “Process for the preparation of chiral ketone intermediates useful for the preparation of flavopiridol and analogs” (Bristol-Myers Squibb Company, priority 1997, dated 1999).

Tested on: apoptosis
Settings: combination with known cytotoxic agents; J. Cell Sci., 108, 2897 (1995)

## Cn1cnc2c(NCc3ccccc3)nc(NCCO)nc21 [olomucine]
  synergy with known cytotoxic agents in inducing apoptosis: act synergistically with known cytotoxic agents in inducing apoptosis
